Measurements as given in ChEMBL document CHEMBL1152822, “Genetic analysis of the dihydrofolate reductase-thymidylate synthase gene from geographically diverse isolates of Plasmodium malariae” (Antimicrob Agents Chemother, 2007).
In brackets after ≈: the same amount, converted by molar mass.

Key:
Assay type in all cases: functional, organism-based
[1] = test system: Plasmodium vivax; experiment: Antiplasmodial activity against Plasmodium vivax
[2] = test system: Plasmodium malariae; experiment: Antimalarial activity as inhibition of schizont maturation against Plasmodium malariae Thai after 40 - 70 hrs
[3] = test system: Plasmodium falciparum; experiment: Antiplasmodial activity against Plasmodium falciparum

`CCN(CC)CCCC(C)Nc1ccnc2cc(Cl)ccc12.Cl` (stereo not given) was tested, and the IC50 [1] was 0.05 µg/mL and the IC50 [2] was 0.0749 µg/mL.
Work on `CCc1nc(N)nc(N)c1-c1ccc(Cl)cc1` [PYRIMETHAMINE] yielded an IC50 [1] of 0.008 µg/mL (≈ 0.0322 µM), an IC50 [3] of 4.08 µg/mL (≈ 16.4 µM) and an IC50 [2] of 0.00224 µg/mL (≈ 0.00901 µM).
